The values that follow come from PMC11865982, “Structure–Activity Relationships and Biological Insights into PSMA-617 and Its Derivatives with Modified Lipophilic Linker Regions” (ACS Omega, 2025).

The conditions of data set [1]: linker amino acid building block; source not stated; cited from earlier work.
A short description of data set [2]: Stability in DMSO solution by 1H NMR. Format: physicochemical. The conditions noted are these: several days. As to the method:
Characterization of the compounds was conducted extensively by one-dimensional (1D) ^1H, ^13C, and ^15N NMR (Figures S10–S15) and two-dimensional (2D) spectra, viz. COSY, HSQC, and HMBC (Figures S16–S21). Previous assignments of analogous compounds[5] were also used to provide unequivocal assignment of the ^1H, ^13C, and ^15N signals except for the DOTA macrocyclic ring assignments which could not be effected with certitude due to dynamic effects causing severe line broadening and thereby precluding correlations in the 2D spectra pertinent to the DOTA ring. The dynamic effects arising from the slow motional averaging of the DOTA ring on the NMR time scale leading to severe broadening of the signals of the DOTA ring were alleviated for the ^13C signals by the acquisition of spectra at lower field. Indeed, not all of the signals of the DOTA ring could be observed in the case of ^15N, unequivocally assigned in the case of ^13C, or uniquely discerned in the case of ^1H. However, all other signals though were able to be fully assigned and the spectra were otherwise fully consistent with the proposed structures and for both P17 and P18 the assigned structures were confirmed in terms of proton count, carbon count, and carbon multiplicities. […]

Another data set concerns the target T1, recombinant human PSMA (Homo sapiens, UniProt Q04609).
T1 construct: extracellular part of human PSMA (amino acids 44–750); made in house; host or cells: Drosophila Schneider's S2 cells (secreted into conditioned medium)
As to the kind of experiment: HPLC-based PSMA enzyme inhibition assay with fluorescein-γ-Glu-Glu substrate. Format: biochemical. As to conditions: 20 pM recombinant human PSMA, 100 nM substrate, 37 °C; average ± SD (n = 3). Here is the method: The potency of the studied inhibitors against recombinant human PSMA was determined in vitro using an HPLC-based assay with fluorescein−γ-Glu–Glu as the substrate.[11]
Expression and purification of the extracellular part of human PSMA (amino acids 44–750) were performed essentially as described previously.[27] Briefly, the N-terminally tagged PSMA fusion was overexpressed in Schneider’s S2 cells and the conditioned medium concentrated and dialyzed by tangential flow filtration (Millipore, Mosheim, France).
The inhibitory potency was determined using a fluorescence-based assay described previously.[11] Briefly, 20 pM recombinant human PSMA was preincubated with a 3-fold dilution series of inhibitors in 50 mM Tris.HCl, 150 mM NaCl, and 0.001% C12 E8 for 10 min at 37 °C. The reaction was initiated by the addition of 100 nM substrate in a total volume 50 μL. Following 15 min incubation at 37 °C, the reaction was stopped by the addition of 50 μL of 0.1% TFA in 5% ACN. Reaction mixtures were analyzed by RP-HPLC (Shimadzu, HPLC Prominence system) equipped with a Kinetex 2.6 μm XB-C18 100 Å column and a fluorescence detector (λEX/λEM = 492/516). HPLC separation was performed using a linear solvent gradient over 11 min from 20 to 50% of eluent B (0.1% (v/v) TFA in ACN) at a flow rate of 0.6 mL/min. The mobile phase A was 0.1% (v/v) TFA in water. The noninhibited reaction was assigned 100% and the reaction without enzyme present was defined as 0%. Data were fitted using a nonlinear regression algorithm (GraphPad Prism Software, version 8) to calculate IC50 values from the inhibition curves. Three independent assays were performed for each compound.

Data set [3] concerns the target T2, PSMA-overexpressing PC-3 PIP cell line (Homo sapiens, UniProt Q04609).
T2 construct: host or cells: PC3-PIP (subline of the human PC3 prostate cancer line)
As to the kind of experiment: Competitive cell-binding affinity assay against [177Lu]Lu-PSMA-617, PC3-PIP. The conditions noted are these: competition with 0.75 nM [177Lu]Lu-PSMA-617, 45 min RT; average ± SD (n = 3). Here is the method:
(§1) To validate the IC50 values determined by the in vitro enzymatic assay, the PSMA-expressing cell line LNCaP, its daughter cell line C4-2, and the PSMA-overexpressing cell line PC-3 PIP were utilized to compare the cell-binding affinities of P17 and P18 to PSMA-617. The IC50 values of P17 and P18 were assessed by competitive binding against [^177Lu]Lu-PSMA-617. […] For the transfected cell line PC-3 PIP, the IC50 values for all three compounds were determined to be approximately 10-fold higher.
(§2) Cell culture media and supplements were purchased from PAN Biotech if not stated otherwise. In vitro assays were performed using the sublines of the androgen-independent PC3 human PCa cell line, PSMA-positive (PSMA+) PC3-PIP and PSMA-negative (PSMA−) PC3-flu cells, purchased from Johns Hopkins University (Baltimore, […], USA). Both cell lines were housed in a humidified atmosphere of 5% CO2 at 37 °C and cultured in RPMI-1640 medium supplemented with 10% fetal calf serum (FCS), 1% L-glutamine (L-Gln), and puromycin (2 μg/mL). In addition, cell-binding affinity assays were also performed on PSMA + LNCaP (ATCC CRL-1740) and C4-2 (ATCC CRL-3314) cell lines. LNCaP was derived from a human lymph node metastatic lesion of PCa while C4-2 was isolated from an LNCaP-based tumor xenograft of an androgen-depleted mouse. Both cell lines were cultured as described above but in the absence of puromycin. Routine cell culture was performed twice a week at RT using phosphate-buffered saline (PBS, pH 7.4) for washing and 0.05% trypsin for cell detachment.
(§3) The binding affinities of PSMA-617, P17, and P18 were determined using a competitive assay with [^177Lu]Lu-PSMA-617. All three compounds were incubated at 12 different concentrations (0, 0.5, 1, 2.5, 5, 10, 25, 50, 100, 500, 1,000, and 5000 nM) with 0.75 nM [^177Lu]Lu-PSMA-617 on either PSMA + cell lines PC3-PIP, LNCaP, or C4-2 or the PSMA– cell line PC3-flu plated at a concentration of 10^6 cells/well. After 45 min incubation at RT, the radioligand was removed and cells washed twice with 100 μL and once with 200 μL ice-cold PBS. […]

The target in data set [4] is T3, PSMA-positive LNCaP cell line (Homo sapiens, UniProt Q04609).
T3 construct: native LNCaP and LNCaP-derived C4-2 cell lines; host or cells: LNCaP
As to the kind of experiment: Competitive cell-binding affinity assay against [177Lu]Lu-PSMA-617, LNCaP. The conditions noted are these: competition with 0.75 nM [177Lu]Lu-PSMA-617, 45 min RT; average ± SD (n = 3). Here is the method: as §1, §2, §3

Data set [5] deals with T4, PSMA-positive C4-2 cell line (Homo sapiens, UniProt Q04609).
T4 construct: native LNCaP and LNCaP-derived C4-2 cell lines; host or cells: C4-2
In words: Competitive cell-binding affinity assay against [177Lu]Lu-PSMA-617, C4-2. The conditions noted are these: competition with 0.75 nM [177Lu]Lu-PSMA-617, 45 min RT; average ± SD (n = 3). Here is the method: as §1, §2, §3

A further data set deals with PC3-PIP cells. In words: Cellular internalization assay. Format: cell-based, human. The conditions noted are these: 30 nM radioligand, 45 min 37 °C, average ± SD (n = 3). As to the method: To further characterize P17 and P18, internalization assays were conducted to determine whether the structural modifications of the linker have an impact on the uptake of the inhibitor–enzyme complex into the cell, which is critical for efficient retention in vivo.
as §2
Cells (10^5 cells/well) were seeded in poly-L-lysine (PLL)-coated plates 24 h before the experiment. […] Another set of cells was treated analogically while the PSMA-inhibitor 2-(phosphonomethyl)pentane-1,5-dioic acid (2-PMPA; 100 mM, […]) was added in order to subtract the nonspecific binding. The respective radioligand was removed and cells were washed three times with 1 mL ice-cold PBS and the surface-bound radioactivity detached by incubating the cells twice with 500 μL glycine buffer (50 mM, pH 2.8) for 5 min. After washing the cells once with 1 mL ice-cold PBS, the internalized fraction was determined by subsequent cells lysis with 500 μL NaOH (0.3 M, pH 14). […] Three independent assays were performed.

Data set [6] can be described thus: n-Octanol/PBS distribution coefficient. As to conditions: n-octanol/PBS pH 7.4. Type of data set: physicochemical.

What is called IC50 is the concentration that gives 50% inhibition. A word on the log D: it is the decadic logarithm of the distribution of all forms, ionised or not, between an organic phase and buffer at a given pH.

T2 sequence (Q04609 whole entry): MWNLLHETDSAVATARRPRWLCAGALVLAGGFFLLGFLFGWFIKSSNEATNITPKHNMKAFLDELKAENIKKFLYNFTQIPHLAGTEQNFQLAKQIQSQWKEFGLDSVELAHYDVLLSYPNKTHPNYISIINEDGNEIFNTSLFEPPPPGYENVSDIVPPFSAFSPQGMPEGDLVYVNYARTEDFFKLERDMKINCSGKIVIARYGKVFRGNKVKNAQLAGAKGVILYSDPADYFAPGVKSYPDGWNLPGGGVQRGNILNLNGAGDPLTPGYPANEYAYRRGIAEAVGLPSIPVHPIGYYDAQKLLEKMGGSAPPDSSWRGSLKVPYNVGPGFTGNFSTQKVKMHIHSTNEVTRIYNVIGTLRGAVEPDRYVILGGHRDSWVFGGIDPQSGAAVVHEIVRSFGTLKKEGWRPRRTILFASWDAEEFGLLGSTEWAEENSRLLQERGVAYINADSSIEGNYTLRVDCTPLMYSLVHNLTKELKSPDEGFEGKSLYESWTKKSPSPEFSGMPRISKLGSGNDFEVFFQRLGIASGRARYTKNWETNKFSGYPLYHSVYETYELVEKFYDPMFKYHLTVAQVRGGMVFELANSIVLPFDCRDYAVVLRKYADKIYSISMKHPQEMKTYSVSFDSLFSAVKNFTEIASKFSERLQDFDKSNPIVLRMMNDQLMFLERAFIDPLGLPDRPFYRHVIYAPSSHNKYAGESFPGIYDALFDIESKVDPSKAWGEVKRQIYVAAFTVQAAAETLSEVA
T3 sequence (Q04609 whole entry): as above
T4 sequence (Q04609 whole entry): as above
T1 sequence (Q04609 44-750): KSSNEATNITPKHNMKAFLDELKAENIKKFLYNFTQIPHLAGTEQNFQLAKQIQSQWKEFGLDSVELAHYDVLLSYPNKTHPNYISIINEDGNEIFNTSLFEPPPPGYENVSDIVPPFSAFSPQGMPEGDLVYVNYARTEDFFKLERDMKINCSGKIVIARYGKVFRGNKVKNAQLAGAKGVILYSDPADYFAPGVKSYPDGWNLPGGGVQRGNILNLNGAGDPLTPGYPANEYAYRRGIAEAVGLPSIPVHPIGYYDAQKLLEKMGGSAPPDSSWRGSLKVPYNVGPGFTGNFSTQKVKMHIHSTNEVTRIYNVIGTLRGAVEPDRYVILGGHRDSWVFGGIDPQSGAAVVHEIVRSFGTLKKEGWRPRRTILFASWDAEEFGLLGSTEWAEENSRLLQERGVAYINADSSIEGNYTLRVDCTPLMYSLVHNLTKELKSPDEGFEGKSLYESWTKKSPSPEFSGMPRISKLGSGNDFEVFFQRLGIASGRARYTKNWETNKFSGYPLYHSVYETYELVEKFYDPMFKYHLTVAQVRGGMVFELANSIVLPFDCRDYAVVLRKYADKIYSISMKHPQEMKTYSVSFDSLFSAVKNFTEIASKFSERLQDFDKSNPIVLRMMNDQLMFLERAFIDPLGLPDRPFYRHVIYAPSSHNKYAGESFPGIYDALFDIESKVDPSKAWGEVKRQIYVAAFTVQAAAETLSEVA

`N[C@@H](Cc1ccc2ccccc2c1)C(=O)O` [2-naphthyl-L-Ala]: in data set [1], the “log Kow” value is above 3.

Take `N[C@@H](CC=Cc1ccccc1)C(=O)O` [3-styryl-L-Ala]: the “log Kow” value in data set [1] is below 3.

On to `O=C(O)CC[C@H](NC(=O)N[C@@H](CCCCNC(=O)[C@H](C/C=C/c1ccccc1)NC(=O)[C@H]1CC[C@H](CNC(=O)CN2CCN(CC(=O)O)CCN(CC(=O)O)CCN(CC(=O)O)CC2)CC1)C(=O)O)C(=O)O` [P17], for which the “stability in DMSO solution” value in data set [2] is “no sign of decomposition after several days”. Moreover, the IC50 at recombinant human PSMA worked out at 0.3 ± 0.04 nM; in data set [3], 150 ± 30 nM; in data set [4] it was 12.9 ± 0.4 nM; in data set [5], 15.5 ± 2.5 nM.

As for `O=C(O)CC[C@H](NC(=O)N[C@@H](CCCCNC(=O)[C@H](C/C=C/c1ccccc1)NC(=O)c1ccc(CNC(=O)CN2CCN(CC(=O)O)CCN(CC(=O)O)CCN(CC(=O)O)CC2)cc1)C(=O)O)C(=O)O` [P18], the “stability in DMSO solution” value in data set [2] is reported as “no sign of decomposition after several days”. The concentration for half-maximal inhibition (IC50) at recombinant human PSMA amounted to 0.45 ± 0.09 nM; in data set [3], 111 ± 9 nM; in data set [4] it was 11.2 ± 4.8 nM; in data set [5] it was 9.5 ± 3 nM.

With `O=C(O)CC[C@H](NC(=O)N[C@@H](CCCCNC(=O)[C@H](Cc1ccc2ccccc2c1)NC(=O)[C@H]1CC[C@H](CNC(=O)CN2CCN(CC(=O)O)CCN(CC(=O)O)CCN(CC(=O)O)CC2)CC1)C(=O)O)C(=O)O` [PSMA-617], the IC50 at recombinant human PSMA worked out at 0.05 ± 0.03 nM; in data set [3], 71 ± 8 nM; in data set [4] it was 6.9 ± 2.2 nM; in data set [5], 4.9 ± 0.9 nM.

Turning to `O=C([O-])CN1CCN(CC(=O)[O-])CCN(CC(=O)NC[C@H]2CC[C@H](C(=O)N[C@@H](C/C=C/c3ccccc3)C(=O)NCCCC[C@H](NC(=O)N[C@@H](CCC(=O)O)C(=O)O)C(=O)O)CC2)CCN(CC(=O)[O-])CC1.[177Lu+3]` [[^177Lu]Lu-P17], in the data set on PC3-PIP cells, the internalized is listed as 8.5 ± 2.4 % AA and the total binding was 20.1 ± 9.8 % AA. For the same compound, in data set [6], the “log D” value is −3.36 ± 0.05.

In the data set on PC3-PIP cells, `O=C([O-])CN1CCN(CC(=O)[O-])CCN(CC(=O)NCc2ccc(C(=O)N[C@@H](C/C=C/c3ccccc3)C(=O)NCCCC[C@H](NC(=O)N[C@@H](CCC(=O)O)C(=O)O)C(=O)O)cc2)CCN(CC(=O)[O-])CC1.[177Lu+3]` [[^177Lu]Lu-P18] displayed an internalized of 8.7 ± 2.9 % AA and a total binding of 33.7 ± 12.8 % AA. For the same compound, the “log D” value in data set [6] was −3.35 ± 0.04.

In the data set with PC3-PIP cells, `O=C([O-])CN1CCN(CC(=O)[O-])CCN(CC(=O)NC[C@H]2CC[C@H](C(=O)N[C@@H](Cc3ccc4ccccc4c3)C(=O)NCCCC[C@H](NC(=O)N[C@@H](CCC(=O)O)C(=O)O)C(=O)O)CC2)CCN(CC(=O)[O-])CC1.[177Lu+3]` [[^177Lu]Lu-PSMA-617, reference compound] displayed an internalized of 8.2 ± 2.4 % AA and a total binding of 26.8 ± 14.2 % AA. Further, the “log D” value in data set [6] is given as −3.27 ± 0.05.
